{
  "source": "ChEMBL document CHEMBL5500393",
  "about": "“Discovery and Optimization of Novel SaFabI Inhibitors as Specific Therapeutic Agents for MRSA Infection” (J Med Chem, 2024)",
  "key": {"Staphylococcus aureus [1]": {"test_system": "Staphylococcus aureus", "assay": "In vivo antibacterial activity against methicilin-resistant Staphylococcus aureus ATCC33591 infected in BALB/c mouse skin infection model assessed as log reduction in bacterial count at 10 mg/kg administered daily for 4 days", "assay_type": "functional", "conditions": "time 4 day"}, "Staphylococcus aureus [2]": {"test_system": "Staphylococcus aureus", "assay": "In vivo antibacterial activity against methicilin-resistant Staphylococcus aureus ATCC33591 infected in BALB/c mouse skin infection model assessed as alleviation of skin lesions at 10 mg/kg administered daily for 4 days by H and E staining based analysis", "assay_type": "functional, organism-based", "conditions": "time 4.0 day"}, "[3]": {"molecular_target": "T1, Enoyl-[acyl-carrier-protein] reductase [NADPH] FabI (Staphylococcus aureus) (UniProt Q6GI75)", "T1 sequence (whole entry)": "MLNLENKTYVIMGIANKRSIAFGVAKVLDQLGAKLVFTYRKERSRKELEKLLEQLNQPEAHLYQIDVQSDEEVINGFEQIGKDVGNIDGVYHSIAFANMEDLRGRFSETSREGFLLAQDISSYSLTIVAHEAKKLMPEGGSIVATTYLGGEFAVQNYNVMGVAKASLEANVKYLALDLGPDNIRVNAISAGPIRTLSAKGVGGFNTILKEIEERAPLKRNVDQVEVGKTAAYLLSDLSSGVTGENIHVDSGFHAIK", "assay": "Binding affinity to N-terminal his 6 tagged Staphylococcus aureus Fabi (1 to […] residues) expressed in Escherichia coli BL21 assessed as change in melting temperature at 80 uM incubated for 20 mins in presence of NADPH by differential scanning fluorescence assay"}, "Staphylococcus aureus [4]": {"test_system": "Staphylococcus aureus", "assay": "In vivo antibacterial activity against methicilin-resistant Staphylococcus aureus ATCC33591 infected in BALB/c mouse skin infection model assessed as reduction in bacterial load at 20 mg/kg administered daily for 4 days", "assay_type": "functional", "conditions": "time 4 day"}, "Staphylococcus aureus [5]": {"test_system": "Staphylococcus aureus", "assay": "In vivo antibacterial activity against methicilin-resistant Staphylococcus aureus ATCC33591 infected in BALB/c mouse skin infection model assessed as decrease in lesion size at 10 mg/kg administered daily for 4 days (reference value: 43.4 mm2)", "assay_type": "functional", "conditions": "time 4 day"}, "Staphylococcus aureus [6]": {"test_system": "Staphylococcus aureus", "assay": "In vivo antibacterial activity against methicilin-resistant Staphylococcus aureus ATCC33591 infected in BALB/c mouse skin infection model assessed as reduction in bacterial load at 5 mg/kg administered daily for 4 days", "assay_type": "functional", "conditions": "time 4 day"}, "Staphylococcus aureus [7]": {"test_system": "Staphylococcus aureus", "assay": "Antimicrobial activity against Staphylococcus aureus RN4220 harbouring pCM-sfgfp::fabi (promoter-sarA) measured after 24 hrs by CLSI protocol based microdilution method", "assay_type": "functional"}, "[8]": {"assay": "Cytotoxicity against HEK293 cells assessed as survival rate at 400 uM measured after 48 hrs by CCK-8 method relative to control", "assay_type": "toxicity, cell-based", "conditions": "human, read-out: Survival"}, "Staphylococcus aureus [9]": {"test_system": "Staphylococcus aureus", "assay": "In vivo antibacterial activity against methicilin-resistant Staphylococcus aureus ATCC33591 infected in BALB/c mouse skin infection model assessed as adverse effect at 5 to 20 mg/kg administered daily for 4 days", "assay_type": "functional, organism-based", "conditions": "dose 5-20 mg/kg, time 4.0 day"}, "Staphylococcus aureus [10]": {"test_system": "Staphylococcus aureus", "assay": "In vivo antibacterial activity against methicilin-resistant Staphylococcus aureus ATCC33591 infected in BALB/c mouse skin infection model assessed as reduction in skin lesions at 10 mg/kg administered daily for 4 days (reference value: 51.6 mm2)", "assay_type": "functional", "conditions": "time 4 day"}, "HepG2": {"test_system": "HepG2", "assay": "Cytotoxicity against human HepG2 cells assessed as survival rate at 800 uM measured after 48 hrs by CCK-8 method relative to control", "assay_type": "functional", "conditions": "read-out: Survival"}, "[11]": {"assay": "Hemolytic activity in sheep erythrocytes assessed as hemolysis at 64 ug/ml incubated for 1 hr by microplate reader based analysis relative to control", "assay_type": "toxicity, cell-based, Ovis aries, Erythrocyte", "conditions": "at 64 µg/mL, read-out: Activity"}, "Cell membrane": {"test_system": "Cell membrane", "assay": "Induction of cell membrane permeability in methicillin-resistant Staphylococcus aureus ATCC33591 assessed as increase in fluorescence measured after 30 mins by Annexin V-FITC staining based analysis", "assay_type": "cell membranes"}, "Staphylococcus aureus [12]": {"test_system": "Staphylococcus aureus", "assay": "In vivo antibacterial activity against methicilin-resistant Staphylococcus aureus ATCC33591 infected in BALB/c mouse skin infection model assessed as decrease in lesion size at 5 mg/kg administered daily for 4 days (reference value: 43.4 mm2)", "assay_type": "functional", "conditions": "time 4 day"}, "Staphylococcus aureus [13]": {"test_system": "Staphylococcus aureus", "assay": "In vivo antibacterial activity against methicilin-resistant Staphylococcus aureus ATCC33591 infected in BALB/c mouse skin infection model assessed as damaged tissue at 10 mg/kg administered daily for 4 days by H and E staining based analysis", "assay_type": "functional, organism-based", "conditions": "time 4.0 day"}, "Staphylococcus aureus [14]": {"test_system": "Staphylococcus aureus", "assay": "In vivo antibacterial activity against methicilin-resistant Staphylococcus aureus ATCC33591 infected in BALB/c mouse skin infection model assessed as as appearance of inflammatory cell infiltrates at 10 mg/kg administered daily for 4 days by H and E staining based analysis", "assay_type": "functional, organism-based", "conditions": "time 4.0 day"}, "Staphylococcus aureus [15]": {"test_system": "Staphylococcus aureus", "assay": "In vivo antibacterial activity against methicilin-resistant Staphylococcus aureus ATCC33591 infected in BALB/c mouse skin infection model assessed as reduction in area of injury at 20 mg/kg administered daily for 4 days by H and E staining based analysis", "assay_type": "functional, organism-based", "conditions": "time 4.0 day"}, "Staphylococcus aureus [16]": {"test_system": "Staphylococcus aureus", "assay": "In vivo antibacterial activity against methicilin-resistant Staphylococcus aureus ATCC33591 infected in BALB/c mouse skin infection model assessed as reduction in number of inflammatory cells at 20 mg/kg administered daily for 4 days by H and E staining based analysis", "assay_type": "functional, organism-based", "conditions": "time 4.0 day"}, "Staphylococcus aureus [17]": {"test_system": "Staphylococcus aureus", "assay": "In vivo antibacterial activity against methicilin-resistant Staphylococcus aureus ATCC33591 infected in BALB/c mouse skin infection model assessed as decrease in lesion size at 20 mg/kg administered daily for 4 days (reference value: 43.4 mm2)", "assay_type": "functional", "conditions": "time 4 day"}, "[18]": {"assay": "Hemolytic activity in sheep erythrocytes assessed as hemolysis at 256 ug/ml incubated for 1 hr by microplate reader based analysis relative to control", "assay_type": "toxicity, cell-based, Ovis aries, Erythrocyte", "conditions": "at 256 µg/mL, read-out: Activity"}, "Staphylococcus aureus [19]": {"test_system": "Staphylococcus aureus", "assay": "In vivo antibacterial activity against methicilin-resistant Staphylococcus aureus ATCC33591 infected in BALB/c mouse skin infection model assessed as effect on body weight loss at 5 to 20 mg/kg administered daily for 4 days", "assay_type": "functional, organism-based", "conditions": "dose 5-20 mg/kg, time 4.0 day"}, "[20]": {"assay": "Acute toxicity in female BALB/c mouse assessed as effect on CREA level in serum at 800 mg/kg, po measured after 14 days", "assay_type": "organism-based", "conditions": "in vivo, 336 h, time 14 day"}, "[21]": {"assay": "Half life in female Sprague-Dawley rat at 5 mg/kg, iv measured upto 24 hrs by LC-MS analysis", "assay_type": "ADME, organism-based", "conditions": "in vivo"}, "Staphylococcus aureus [22]": {"test_system": "Staphylococcus aureus", "assay": "In vivo antibacterial activity against methicilin-resistant Staphylococcus aureus ATCC33591 infected in BALB/c mouse skin infection model assessed as reduction in bacterial load administered daily for 4 days", "assay_type": "functional, organism-based", "conditions": "dose 5-20 mg/kg, time 4.0 day"}, "Staphylococcus aureus [23]": {"test_system": "Staphylococcus aureus", "assay": "In vivo antibacterial activity against methicilin-resistant Staphylococcus aureus ATCC33591 infected in BALB/c mouse skin infection model assessed as restoration of cell morphology at 20 mg/kg administered daily for 4 days by H and E staining based analysis", "assay_type": "functional, organism-based", "conditions": "time 4.0 day"}, "Staphylococcus aureus [24]": {"test_system": "Staphylococcus aureus", "assay": "In vivo antibacterial activity against methicilin-resistant Staphylococcus aureus ATCC33591 infected in BALB/c mouse skin infection model assessed as reduction in bacterial load at 10 mg/kg administered daily for 4 days", "assay_type": "functional", "conditions": "time 4 day"}},
  "note": "The source made the active and inactive calls. No cut-off for these calls is given here.",
  "data": [
    {"smiles": "Cc1c(Br)cccc1N1CC(c2nc3ccccc3n2C)CC1=O", "note": "(centres undefined)", "values": [
      {"measurement": "log(activity)", "setting": "Staphylococcus aureus [1]", "value": 4.9},
      {"measurement": "Activity", "setting": "Staphylococcus aureus [2]", "value": "Active"},
      {"measurement": "ΔTm", "setting": "[3]", "value": 11.8, "unit": "°C"},
      {"measurement": "log(activity)", "setting": "Staphylococcus aureus [4]", "value": -6.2},
      {"measurement": "Activity", "setting": "Staphylococcus aureus [5]", "value": 20.9, "unit": "mm2"},
      {"measurement": "log(activity)", "setting": "Staphylococcus aureus [6]", "value": -1.8},
      {"measurement": "MIC", "setting": "Staphylococcus aureus [7]", "value": "> 32", "unit": "µg/mL"},
      {"measurement": "viability at 48 h, 400 µM", "setting": "[8]", "value": "> 70", "unit": "%"},
      {"measurement": "Activity", "setting": "Staphylococcus aureus [9]", "value": "inactive"},
      {"measurement": "Activity", "setting": "Staphylococcus aureus [10]", "value": 27.5, "unit": "mm2"},
      {"measurement": "viability at 800 µM", "setting": "HepG2", "value": "> 75", "unit": "%"},
      {"measurement": "hemolysis at 1 h, 64 ug/ml", "setting": "[11]", "value": 3.1, "unit": "%"},
      {"measurement": "Activity", "setting": "Cell membrane", "value": "Active"},
      {"measurement": "Activity", "setting": "Staphylococcus aureus [12]", "value": 31.1, "unit": "mm2"},
      {"measurement": "Activity", "setting": "Staphylococcus aureus [13]", "value": "Active"},
      {"measurement": "Activity", "setting": "Staphylococcus aureus [14]", "value": "Active"},
      {"measurement": "Activity", "setting": "Staphylococcus aureus [15]", "value": "Active"},
      {"measurement": "Activity", "setting": "Staphylococcus aureus [16]", "value": "Active"},
      {"measurement": "Activity", "setting": "Staphylococcus aureus [17]", "value": 13, "unit": "mm2"},
      {"measurement": "hemolysis at 1 h, 256 ug/ml", "setting": "[18]", "value": 9.9, "unit": "%"},
      {"measurement": "Activity", "setting": "Staphylococcus aureus [19]", "value": "inactive"},
      {"measurement": "Activity", "setting": "[20]", "value": "Non-Toxic"},
      {"measurement": "t1/2", "setting": "[21]", "value": 1.1, "unit": "h"},
      {"measurement": "Activity", "setting": "Staphylococcus aureus [22]", "value": "Dose-Dependent Effect"},
      {"measurement": "Activity", "setting": "Staphylococcus aureus [23]", "value": "Active"},
      {"measurement": "log(activity)", "setting": "Staphylococcus aureus [24]", "value": -4.5}
    ]},
    {"smiles": "COc1c(Br)cccc1N1CC(c2nc3ccccc3n2C)CC1=O", "note": "(centres undefined)", "values": [
      {"measurement": "MIC", "setting": "Staphylococcus aureus [7]", "value": "> 32", "unit": "µg/mL"},
      {"measurement": "viability at 48 h, 400 µM", "setting": "[8]", "value": "> 70", "unit": "%"},
      {"measurement": "viability at 800 µM", "setting": "HepG2", "value": "> 65", "unit": "%"},
      {"measurement": "hemolysis at 1 h, 64 ug/ml", "setting": "[11]", "value": 1.9, "unit": "%"},
      {"measurement": "Activity", "setting": "Cell membrane", "value": "Active"},
      {"measurement": "hemolysis at 1 h, 256 ug/ml", "setting": "[18]", "value": 8.1, "unit": "%"},
      {"measurement": "Activity", "setting": "[20]", "value": "Non-Toxic"},
      {"measurement": "t1/2", "setting": "[21]", "value": 1.1, "unit": "h"}
    ]}
  ]
}
